The test system of the assay is DIO mice. Nature of the assay: Weight loss recovery of mPD5 relative to liraglutide. Format: in vivo. Conditions: 0.09 mg kg−1 s.c. once daily for 9 days.

As for liraglutide, the “Weight regain upon treatment cessation” value is listed as “promptly initiated weight regain upon treatment cessation”.
